Tests used:
[1] = target: T1, Glycogen synthase kinase-3 beta (Homo sapiens, UniProt P49841)
[2] = target: T1, Glycogen synthase kinase-3 beta; remark: listed apart in the source
[3] = target: T1, Glycogen synthase kinase-3 beta; remark: listed apart in the source
Description: Inhibition of full length recombinant human His-tagged GSK3beta expressed in baculovirus expression system using Ser/Thr 9 peptide substrate by Z'-LYTE assay

[4] = target: T1, Glycogen synthase kinase-3 beta; remark: listed apart in the source
Description: Inhibition of GST-tagged GSK3beta (unknown origin) expressed in Escherichia coli BL21-CodonPlus (DE3) by Z'-LYTE assay

T1 sequence (P49841 whole entry): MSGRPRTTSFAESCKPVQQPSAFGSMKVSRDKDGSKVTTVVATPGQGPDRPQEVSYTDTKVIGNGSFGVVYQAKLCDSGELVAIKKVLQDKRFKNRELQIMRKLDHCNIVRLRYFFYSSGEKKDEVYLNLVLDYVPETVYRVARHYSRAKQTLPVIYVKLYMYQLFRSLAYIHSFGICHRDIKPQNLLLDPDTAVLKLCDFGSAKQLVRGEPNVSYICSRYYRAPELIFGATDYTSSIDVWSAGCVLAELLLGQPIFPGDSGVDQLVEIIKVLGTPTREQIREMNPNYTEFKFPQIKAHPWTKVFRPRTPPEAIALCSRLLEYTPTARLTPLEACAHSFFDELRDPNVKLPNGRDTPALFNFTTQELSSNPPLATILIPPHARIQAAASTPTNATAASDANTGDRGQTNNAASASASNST

[Zn]
IC50 [1]: 15000 nM

N=C1N[C@H]2c3c([nH]c(Br)c3Br)C(=O)C3CCC[C@@]32N1 (stereo not given in full)
IC50 [1]: 3000 nM

O=c1[nH]nc2c(NCCc3ccncc3)cc(Cl)cn12
IC50 [2]: 111 nM

O=C1NC(=O)C(c2cn(CCC3N=CC=N3)c3ccccc23)=C1c1noc2ccccc12
IC50 [3]: 0.73 nM

Cn1cc(C2=C(c3nn(CCCN4CCOCC4)c4ncccc34)C(=O)NC2=O)c2ccccc21
IC50 [4]: 340 nM

From ChEMBL document CHEMBL4041480, “Natural and synthetic bioactive inhibitors of glycogen synthase kinase” (Eur J Med Chem, 2017)
